Source: PubChem BioAssay AID1963964 (Molecular Pharmacology Branch, DTP, NCI, 2024)

Test system: 997726-040-R-J2-PDC tumor spheroids, viability
Assay: Anticancer human tumor 997726-040-R-J2-PDC patient-derived squamous cell lung carcinoma cell line growth inhibition [PI3K]
Details: spheroids with HUVEC and MSC; for IC50: curve of first compound; for viability, T/C: stronger effect = lower value
Summary of the method: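 Complex 3D spheroids (cancer cells + endothelial HUVEC + mesenchymal stem cells); drug pairs of targeted agent x inavolisib/alpelisib/duvelisib/copanlisib; half-log series from ~Cmax, max 10 microM if Cmax unknown; endpoint viability.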

[1] = second compound 0.0316 µM, first compound 0.0316 µM
[2] = second compound 0.0316 µM, first compound 0.1 µM
[3] = second compound 0.1 µM, first compound 0.0316 µM
[4] = second compound 0.1 µM, first compound 0.1 µM
[5] = second compound 0.316 µM, first compound 0.0316 µM
[6] = second compound 0.316 µM, first compound 0.1 µM
[7] = second compound 1 µM, first compound 0.0316 µM
[8] = second compound 1 µM, first compound 0.1 µM
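Note: spheroids exposed to compounds for seven days before readout.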

## C[C@@H](NC(=O)c1ncnc(N)c1Cl)c1ncc(C(=O)Nc2cc(C(F)(F)F)c(Cl)cn2)s1 + CC(Nc1ncnc2nc[nH]c12)c1cc2cccc(Cl)c2c(=O)n1-c1ccccc1
Second compound 0.0316 µM
  IC50: > 10000 nM
Second compound 0.1 µM
  IC50: > 10000 nM
Second compound 0.316 µM
  IC50: > 10000 nM
Second compound 1 µM
  IC50: > 10000 nM
Second compound 3.16 µM
  IC50: > 10000 nM
Second compound 10 µM
  IC50: 4740 nM
[1]
  viability, T/C: 123%
[2]
  viability, T/C: 112%
Second compound 0.0316 µM, first compound 0.316 µM
  viability, T/C: 113%
Second compound 0.0316 µM, first compound 1 µM
  viability, T/C: 120%
Second compound 0.0316 µM, first compound 3.16 µM
  viability, T/C: 97.2%
Second compound 0.0316 µM, first compound 10 µM
  viability, T/C: 84.1%
[3]
  viability, T/C: 108%
[4]
  viability, T/C: 129%
Second compound 0.1 µM, first compound 0.316 µM
  viability, T/C: 118%
Second compound 0.1 µM, first compound 1 µM
  viability, T/C: 118%
Second compound 0.1 µM, first compound 3.16 µM
  viability, T/C: 103%
Second compound 0.1 µM, first compound 10 µM
  viability, T/C: 68.7%
[5]
  viability, T/C: 114%
[6]
  viability, T/C: 114%
Second compound 0.316 µM, first compound 0.316 µM
  viability, T/C: 128%
Second compound 0.316 µM, first compound 1 µM
  viability, T/C: 119%
Second compound 0.316 µM, first compound 3.16 µM
  viability, T/C: 96.8%
Second compound 0.316 µM, first compound 10 µM
  viability, T/C: 70.1%
[7]
  viability, T/C: 114%
[8]
  viability, T/C: 102%
Second compound 1 µM, first compound 0.316 µM
  viability, T/C: 108%
Second compound 1 µM, first compound 1 µM
  viability, T/C: 113%
Second compound 1 µM, first compound 3.16 µM
  viability, T/C: 91.5%
Second compound 1 µM, first compound 10 µM
  viability, T/C: 72.8%
Second compound 3.16 µM, first compound 0.0316 µM
  viability, T/C: 97%
Second compound 3.16 µM, first compound 0.1 µM
  viability, T/C: 90.9%
Second compound 3.16 µM, first compound 0.316 µM
  viability, T/C: 83.8%
Second compound 3.16 µM, first compound 1 µM
  viability, T/C: 79.2%
Second compound 3.16 µM, first compound 3.16 µM
  viability, T/C: 79.5%
Second compound 3.16 µM, first compound 10 µM
  viability, T/C: 61.5%
Second compound 10 µM, first compound 0.0316 µM
  viability, T/C: 61.4%
Second compound 10 µM, first compound 0.1 µM
  viability, T/C: 62.4%
Second compound 10 µM, first compound 0.316 µM
  viability, T/C: 60.2%
Second compound 10 µM, first compound 1 µM
  viability, T/C: 59.5%
Second compound 10 µM, first compound 3.16 µM
  viability, T/C: 52.3%
Second compound 10 µM, first compound 10 µM
  viability, T/C: 43.9%

## CC(=O)c1c(C)c2cnc(Nc3ccc(N4CCNCC4)cn3)nc2n(C2CCCC2)c1=O + CC(Nc1ccc2c(c1)OCCn1cc(N3C(=O)OCC3C(F)F)nc1-2)C(N)=O
Second compound 0.00316 µM
  IC50: > 100 nM
Second compound 0.01 µM
  IC50: > 100 nM
Second compound 0.0316 µM
  IC50: 44.5 nM
Second compound 0.1 µM
  IC50: < 0.316 nM
Second compound 0.316 µM
  IC50: < 0.316 nM
Second compound 1 µM
  IC50: < 0.316 nM
Second compound 0.00316 µM, first compound 0.000316 µM
  viability, T/C: 94.9%
Second compound 0.00316 µM, first compound 0.001 µM
  viability, T/C: 84.1%
Second compound 0.00316 µM, first compound 0.00316 µM
  viability, T/C: 83.1%
Second compound 0.00316 µM, first compound 0.01 µM
  viability, T/C: 81.9%
Second compound 0.00316 µM, first compound 0.0316 µM
  viability, T/C: 84.9%
Second compound 0.00316 µM, first compound 0.1 µM
  viability, T/C: 55.8%
Second compound 0.01 µM, first compound 0.000316 µM
  viability, T/C: 84.7%
Second compound 0.01 µM, first compound 0.001 µM
  viability, T/C: 80.7%
Second compound 0.01 µM, first compound 0.00316 µM
  viability, T/C: 74.1%
Second compound 0.01 µM, first compound 0.01 µM
  viability, T/C: 76.4%
Second compound 0.01 µM, first compound 0.0316 µM
  viability, T/C: 65.8%
Second compound 0.01 µM, first compound 0.1 µM
  viability, T/C: 53.9%
Second compound 0.0316 µM, first compound 0.000316 µM
  viability, T/C: 62%
Second compound 0.0316 µM, first compound 0.001 µM
  viability, T/C: 62.1%
Second compound 0.0316 µM, first compound 0.00316 µM
  viability, T/C: 63.9%
Second compound 0.0316 µM, first compound 0.01 µM
  viability, T/C: 53.9%
[1]
  viability, T/C: 52.5%
[2]
  viability, T/C: 45%
Second compound 0.1 µM, first compound 0.000316 µM
  viability, T/C: 43.5%
Second compound 0.1 µM, first compound 0.001 µM
  viability, T/C: 45.4%
Second compound 0.1 µM, first compound 0.00316 µM
  viability, T/C: 46.5%
Second compound 0.1 µM, first compound 0.01 µM
  viability, T/C: 48.9%
[3]
  viability, T/C: 40.5%
[4]
  viability, T/C: 29.5%
Second compound 0.316 µM, first compound 0.000316 µM
  viability, T/C: 38.4%
Second compound 0.316 µM, first compound 0.001 µM
  viability, T/C: 32.7%
Second compound 0.316 µM, first compound 0.00316 µM
  viability, T/C: 39.3%
Second compound 0.316 µM, first compound 0.01 µM
  viability, T/C: 30.1%
[5]
  viability, T/C: 24.4%
[6]
  viability, T/C: 22.9%
Second compound 1 µM, first compound 0.000316 µM
  viability, T/C: 26.3%
Second compound 1 µM, first compound 0.001 µM
  viability, T/C: 33.2%
Second compound 1 µM, first compound 0.00316 µM
  viability, T/C: 27.5%
Second compound 1 µM, first compound 0.01 µM
  viability, T/C: 28.1%
[7]
  viability, T/C: 22.2%
[8]
  viability, T/C: 15.3%
